From PubChem BioAssay AID248 (DTP/NCI, 2004)
Values joined by “and” are separate entries in the source; they are usually repeats but may differ in a detail not shown here. Equal entries are not always repeated. Inconclusive results and toxic doses are left out. No stated cut-off is given here; in the data, active means T/C of 150% or more; inactive means T/C below 125%.

Tested on: L1210 leukemia ip in BDF1 mice, survival T/C
Experiment: NCI In Vivo Anticancer Drug Screen. Data for tumor model L1210 Leukemia (intraperitoneal) in B6D2F1 (BDF1) mice
Settings: endpoint: mean survival time, higher = longer survival
Summary of the method: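 Ratio derived from survival: compound-dosed mice over vehicle-dosed mice, all bearing a transplantable tumor.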

[1] = dose: 100.0 mg/kg/injection, schedule: Q01DX009 (ip), vehicle: Klucel (hydroxypropylcellulose) (HPC)
[2] = dose: 400.0 mg/kg/injection, schedule: Q01DX009 (ip), vehicle: Klucel (hydroxypropylcellulose) (HPC)
[3] = dose: 100.0 mg/kg/injection, schedule: Q01DX001 (ip), vehicle: saline
[4] = dose: 50.0 mg/kg/injection, schedule: Q01DX001 (ip), vehicle: saline
[5] = dose: 200.0 mg/kg/injection, schedule: Q01DX001 (ip), vehicle: saline
[6] = dose: 400.0 mg/kg/injection, schedule: Q01DX001 (ip), vehicle: saline
[7] = dose: 100.0 mg/kg/injection, schedule: Q04DX003 (ip), vehicle: saline with Tween-80
[8] = dose: 200.0 mg/kg/injection, schedule: Q01DX009 (ip), vehicle: Klucel (hydroxypropylcellulose) (HPC)
[9] = dose: 200.0 mg/kg/injection, schedule: Q04DX003 (ip), vehicle: saline with Tween-80
[10] = dose: 400.0 mg/kg/injection, schedule: Q04DX003 (ip), vehicle: saline with Tween-80
[11] = dose: 100.0 mg/kg/injection, schedule: Q04DX003 (ip), vehicle: saline
[12] = dose: 200.0 mg/kg/injection, schedule: Q04DX003 (ip), vehicle: saline
[13] = dose: 400.0 mg/kg/injection, schedule: Q04DX003 (ip), vehicle: saline
[14] = dose: 100.0 mg/kg/injection, schedule: Q01DX009 (ip), vehicle: saline
[15] = dose: 200.0 mg/kg/injection, schedule: Q01DX009 (ip), vehicle: saline
[16] = dose: 100.0 mg/kg/injection, schedule: Q04DX002 (ip), vehicle: saline with Tween-80

Measured: T/C

CC(=O)OC1OC(COC(=O)c2ccccc2)C(OC(=O)c2ccccc2)C1OC(=O)c1ccccc1 (configuration not stated)
inactive: dose: 100.0 mg/kg/injection, schedule: Q01DX001 (ip), vehicle: Klucel (hydroxypropylcellulose) (HPC) 118 % of control and 95 % of control | [1] 92 % of control | dose: 200.0 mg/kg/injection, schedule: Q01DX001 (ip), vehicle: Klucel (hydroxypropylcellulose) (HPC) 97 % of control and 92 % of control | dose: 400.0 mg/kg/injection, schedule: Q01DX001 (ip), vehicle: Klucel (hydroxypropylcellulose) (HPC) 101 % of control and 92 % of control | [2] 92 % of control

OC12CCCCC1C[n+]1ccccc1C2 (configuration not stated)
inactive: [3] 101 % of control

COc1cc(CC(=O)C2CN(C(=O)Cc3cc(Cl)c(OC)c(OC)c3)c3ccc(Br)cc32)cc(Cl)c1OC (configuration not stated)
inactive: [4] 96 % of control | [3] 96 % of control | [5] 90 % of control | [6] 93 % of control

CCOC(=O)CCCN(c1sc(C)c(C)c1C(=O)OCC)S(=O)(=O)c1ccc(C)cc1
inactive: dose: 50.0 mg/kg/injection, schedule: Q01DX009 (ip), vehicle: Klucel (hydroxypropylcellulose) (HPC) 86 % of control | dose: 50.0 mg/kg/injection, schedule: Q04DX003 (ip), vehicle: saline with Tween-80 97 % of control | [1] 105 % of control | [7] 97 % of control | [8] 86 % of control | [9] 97 % of control | [2] 90 % of control | [10] 101 % of control

O=c1ccc2ccccc2o1
inactive: dose: 45.0 mg/kg/injection, schedule: Q01DX Z (ip), vehicle: carboxymethylcellulose (CMC) 114 % of control | dose: 65.0 mg/kg/injection, schedule: Q01DX Z (ip), vehicle: carboxymethylcellulose (CMC) 94 % of control | dose: 95.0 mg/kg/injection, schedule: Q01DX Z (ip), vehicle: carboxymethylcellulose (CMC) 102 % of control | dose: 100.0 mg/kg/injection, schedule: Q01DX001 (ip), vehicle: other 100 % of control | dose: 110.0 mg/kg/injection, schedule: Q01DX Z (ip), vehicle: carboxymethylcellulose (CMC) 102 % of control and 105 % of control | dose: 165.0 mg/kg/injection, schedule: Q01DX Z (ip), vehicle: carboxymethylcellulose (CMC) 97 % of control | dose: 200.0 mg/kg/injection, schedule: Q01DX001 (ip), vehicle: other 105 % of control

Cc1n[nH]c(=S)n1N
inactive: [7] 115 % of control | [9] 102 % of control | [10] 96 % of control

C[n+]1cc2cc(O)c(O)cc2c2ccc3cc(O)c(O)cc3c21
inactive: dose: 40.0 mg/kg/injection, schedule: Q01DX009 (ip), vehicle: saline 102 % of control | dose: 80.0 mg/kg/injection, schedule: Q01DX009 (ip), vehicle: saline 107 % of control | dose: 120.0 mg/kg/injection, schedule: Q01DX009 (ip), vehicle: saline 98 % of control | dose: 240.0 mg/kg/injection, schedule: Q01DX009 (ip), vehicle: saline 98 % of control

CCNc1nnnn1CC
inactive: [11] 101 % of control | [12] 98 % of control | [13] 101 % of control

O=C(Cn1cc(F)c(=O)[nH]c1=O)N1CCC2(CC1)SSC1(CCN(C(=O)Cn3cc(F)c(=O)[nH]c3=O)CC1)S2
inactive: [14] 96 % of control | [11] 104 % of control | [15] 96 % of control | [12] 97 % of control | [13] 97 % of control

CSc1ccc(C(=O)NN)cc1
inactive: [4] 101 % of control | [3] 101 % of control | [5] 101 % of control | [6] 104 % of control

CC[N+](C)(CC)CCNC(=O)C(c1ccccc1)c1ccccc1
inactive: [11] 100 % of control

CCCCNC(=O)/C(=C\c1ccccc1)NC(C)=O
inactive: dose: 3.0 mg/kg/injection, schedule: Q04DX003 (ip), vehicle: DMSO 92 % of control | dose: 6.0 mg/kg/injection, schedule: Q04DX003 (ip), vehicle: DMSO 92 % of control | dose: 6.25 mg/kg/injection, schedule: Q01DX009 (ip), vehicle: DMSO 96 % of control | dose: 12.0 mg/kg/injection, schedule: Q04DX003 (ip), vehicle: DMSO 94 % of control | dose: 12.5 mg/kg/injection, schedule: Q01DX009 (ip), vehicle: DMSO 93 % of control | dose: 12.5 mg/kg/injection, schedule: Q04DX003 (ip), vehicle: DMSO 100 % of control

COc1cc(C=Nc2ccc(Oc3ccc(Cl)cc3)cc2)cc(OC)c1OC
inactive: [1] 102 % of control | [8] 96 % of control

N=C(N)SCc1cccc(Cl)c1
inactive: dose: 25.0 mg/kg/injection, schedule: Q04DX002 (ip), vehicle: saline with Tween-80 100 % of control | dose: 50.0 mg/kg/injection, schedule: Q04DX002 (ip), vehicle: saline with Tween-80 93 % of control | [16] 90 % of control

OC(COc1cccc2ccccc12)CN1CCN(c2ccc(Cl)cc2)CC1 (configuration not stated)
inactive: [3] 98 % of control | [5] 101 % of control | [6] 97 % of control

CCCCCC[Si](CCCCCC)CCCCCC
inactive: dose: 75.0 mg/kg/injection, schedule: Q04DX003 (ip), vehicle: saline with Tween-80 93 % of control | [14] 102 % of control | dose: 150.0 mg/kg/injection, schedule: Q04DX003 (ip), vehicle: saline with Tween-80 90 % of control | [15] 105 % of control | dose: 300.0 mg/kg/injection, schedule: Q04DX003 (ip), vehicle: saline with Tween-80 88 % of control | dose: 400.0 mg/kg/injection, schedule: Q01DX009 (ip), vehicle: saline 93 % of control

Cc1ccc(S(=O)(=O)OCC(C)([N+](=O)[O-])[N+](=O)[O-])cc1
inactive: [16] 94 % of control | dose: 200.0 mg/kg/injection, schedule: Q04DX002 (ip), vehicle: saline with Tween-80 97 % of control | dose: 400.0 mg/kg/injection, schedule: Q04DX002 (ip), vehicle: saline with Tween-80 101 % of control

Oc1ccccc1C=Nc1ccc(N=Cc2ccccc2O)cc1
inactive: [3] 101 % of control | [5] 95 % of control | [6] 106 % of control

CCOC(=O)c1ccc2c(ccc3ccccc32)n1
inactive: dose: 25.0 mg/kg/injection, schedule: Q01DX001 (ip), vehicle: carboxymethylcellulose (CMC) 97 % of control | dose: 25.0 mg/kg/injection, schedule: Q01DX009 (ip), vehicle: carboxymethylcellulose (CMC) 98 % of control and 102 % of control | dose: 25.0 mg/kg/injection, schedule: Q04DX002 (ip), vehicle: carboxymethylcellulose (CMC) 93 % of control and 104 % of control | dose: 25.0 mg/kg/injection, schedule: Q04DX003 (ip), vehicle: carboxymethylcellulose (CMC) 108 % of control | dose: 50.0 mg/kg/injection, schedule: Q01DX001 (ip), vehicle: carboxymethylcellulose (CMC) 102 % of control | dose: 50.0 mg/kg/injection, schedule: Q01DX009 (ip), vehicle: carboxymethylcellulose (CMC) 94 % of control and 98 % of control | dose: 50.0 mg/kg/injection, schedule: Q04DX002 (ip), vehicle: carboxymethylcellulose (CMC) 97 % of control | dose: 50.0 mg/kg/injection, schedule: Q04DX003 (ip), vehicle: carboxymethylcellulose (CMC) 102 % of control | dose: 100.0 mg/kg/injection, schedule: Q01DX001 (ip), vehicle: carboxymethylcellulose (CMC) 94 % of control | dose: 100.0 mg/kg/injection, schedule: Q01DX009 (ip), vehicle: carboxymethylcellulose (CMC) 100 % of control | dose: 100.0 mg/kg/injection, schedule: Q04DX002 (ip), vehicle: carboxymethylcellulose (CMC) 93 % of control and 101 % of control | dose: 100.0 mg/kg/injection, schedule: Q04DX003 (ip), vehicle: carboxymethylcellulose (CMC) 105 % of control

COc1ccc(/C=N\NC(=O)c2ccccc2)cc1
inactive: [7] 102 % of control | [9] 103 % of control | [10] 92 % of control

O=C(Nc1ccc(F)c([N+](=O)[O-])c1)NC(Cc1ccccc1)c1ccccc1 (configuration not stated)
inactive: [1] 98 % of control | [8] 101 % of control | [2] 104 % of control

COc1ccc(C(=O)N/N=C/c2cccc3ccccc23)cc1
inactive: [1] 105 % of control | [8] 103 % of control | [2] 108 % of control
